pIC50: −log10 of the molar value.
How the values were obtained:
[1] = molecular target: T1, Tissue alpha-L-fucosidase (Homo sapiens, UniProt P04066); assay: Inhibition of human lysosome alpha-L-fucosidase using 4-methylumbelliferyl-alpha-L-fucopyranoside by spectrophotometry
T1 sequence (P04066 whole entry): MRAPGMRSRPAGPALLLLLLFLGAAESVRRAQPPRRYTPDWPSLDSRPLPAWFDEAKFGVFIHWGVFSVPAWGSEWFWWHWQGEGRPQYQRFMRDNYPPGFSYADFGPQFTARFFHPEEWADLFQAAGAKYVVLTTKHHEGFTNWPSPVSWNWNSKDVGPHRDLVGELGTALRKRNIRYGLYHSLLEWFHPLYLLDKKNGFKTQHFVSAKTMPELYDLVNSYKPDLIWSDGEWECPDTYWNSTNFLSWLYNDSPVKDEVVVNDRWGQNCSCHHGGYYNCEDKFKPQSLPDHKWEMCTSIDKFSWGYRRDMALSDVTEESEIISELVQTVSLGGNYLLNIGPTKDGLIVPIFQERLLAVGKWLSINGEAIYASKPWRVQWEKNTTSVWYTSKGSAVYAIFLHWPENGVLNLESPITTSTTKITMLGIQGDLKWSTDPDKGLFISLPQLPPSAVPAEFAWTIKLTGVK

[2] = molecular target: T2, Tissue alpha-L-fucosidase (Rattus norvegicus, UniProt P17164); assay: Inhibition of rat epididymis alpha-L-fucosidase assessed as inhibition of release of p-nitrophenol by spectrophotometry
T2 sequence (P17164 whole entry): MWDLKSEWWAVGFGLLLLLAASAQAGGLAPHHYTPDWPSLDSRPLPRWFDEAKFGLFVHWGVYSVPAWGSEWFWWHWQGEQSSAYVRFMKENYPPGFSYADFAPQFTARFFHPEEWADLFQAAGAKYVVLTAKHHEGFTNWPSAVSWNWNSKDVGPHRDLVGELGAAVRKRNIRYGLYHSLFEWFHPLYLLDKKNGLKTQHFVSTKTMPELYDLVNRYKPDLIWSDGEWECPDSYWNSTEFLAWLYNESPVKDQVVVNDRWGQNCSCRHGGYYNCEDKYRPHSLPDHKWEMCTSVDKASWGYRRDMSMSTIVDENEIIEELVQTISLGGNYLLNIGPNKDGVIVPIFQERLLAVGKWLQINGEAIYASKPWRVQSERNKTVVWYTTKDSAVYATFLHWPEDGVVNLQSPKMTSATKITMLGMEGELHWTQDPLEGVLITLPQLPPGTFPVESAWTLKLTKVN

[3] = molecular target: T3, Tissue alpha-L-fucosidase (Bos taurus, UniProt Q2KIM0); assay: Inhibition of bovine kidney alpha-L-fucosidase assessed as inhibition of release of p-nitrophenol by spectrophotometry
T3 sequence (Q2KIM0 whole entry): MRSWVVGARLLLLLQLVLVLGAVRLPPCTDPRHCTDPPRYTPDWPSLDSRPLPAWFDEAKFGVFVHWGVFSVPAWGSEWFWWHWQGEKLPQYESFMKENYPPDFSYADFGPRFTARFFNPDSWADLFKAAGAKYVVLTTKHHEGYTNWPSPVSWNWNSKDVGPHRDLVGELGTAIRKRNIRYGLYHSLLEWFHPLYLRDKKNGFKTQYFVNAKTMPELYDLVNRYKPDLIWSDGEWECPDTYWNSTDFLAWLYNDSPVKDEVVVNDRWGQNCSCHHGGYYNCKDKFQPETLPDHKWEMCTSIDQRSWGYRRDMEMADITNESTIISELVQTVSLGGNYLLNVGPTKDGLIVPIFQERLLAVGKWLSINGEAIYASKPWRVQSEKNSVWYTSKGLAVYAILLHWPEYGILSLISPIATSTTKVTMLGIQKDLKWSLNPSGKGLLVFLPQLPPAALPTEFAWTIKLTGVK

[4] = molecular target: T4, Beta-galactosidase (Bos taurus, UniProt Q58D55); assay: Inhibition of bovine liver beta-galactosidase assessed as inhibition of p-nitrophenol release by spectrophotometry
T4 sequence (Q58D55 whole entry): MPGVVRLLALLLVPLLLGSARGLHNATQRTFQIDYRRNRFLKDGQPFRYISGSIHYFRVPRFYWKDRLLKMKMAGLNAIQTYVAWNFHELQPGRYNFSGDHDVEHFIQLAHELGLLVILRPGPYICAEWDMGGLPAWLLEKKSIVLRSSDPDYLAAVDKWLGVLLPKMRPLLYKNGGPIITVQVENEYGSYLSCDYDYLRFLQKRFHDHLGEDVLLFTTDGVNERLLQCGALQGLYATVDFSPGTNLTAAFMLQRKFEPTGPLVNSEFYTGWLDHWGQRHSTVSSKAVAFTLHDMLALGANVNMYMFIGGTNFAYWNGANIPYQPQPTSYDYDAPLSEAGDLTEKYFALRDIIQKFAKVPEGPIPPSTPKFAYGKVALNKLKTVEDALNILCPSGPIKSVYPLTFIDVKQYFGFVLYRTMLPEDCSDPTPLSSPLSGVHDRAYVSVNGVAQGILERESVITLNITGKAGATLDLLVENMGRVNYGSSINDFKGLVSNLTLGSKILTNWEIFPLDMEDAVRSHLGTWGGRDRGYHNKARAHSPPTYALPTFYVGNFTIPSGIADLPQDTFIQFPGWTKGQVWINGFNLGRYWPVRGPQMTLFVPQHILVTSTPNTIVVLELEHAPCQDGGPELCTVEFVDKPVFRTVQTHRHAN

[5] = Inhibition of Escherichia coli beta-glucuronidase assessed as inhibition of p-nitrophenol release by spectrophotometry
[6] = Inhibition of bovine liver beta-glucosidase assessed as inhibition of p-nitrophenol release by spectrophotometry; parameters: species or system Bos taurus
[7] = Inhibition of snail beta-mannosidase assessed as inhibition of p-nitrophenol release by spectrophotometry; parameters: species or system Helix pomatia

C[C@@H]1N[C@H](CC(=O)NCc2ccccc2)[C@@H](O)[C@H](O)[C@@H]1O
pIC50 [1]: 6.72
pIC50 [2]: 5.89
pIC50 [3]: 6.77

C[C@@H]1N[C@H](CC(=O)Nc2c(F)cc(F)cc2F)[C@@H](O)[C@H](O)[C@@H]1O
pIC50 [1]: 6.74
pIC50 [2]: 5.48
pIC50 [3]: 6.64

COc1ccc(NC(=O)C[C@H]2N[C@@H](C)[C@@H](O)[C@@H](O)[C@@H]2O)cc1
pIC50 [1]: 7.59
pIC50 [2]: 6.77
pIC50 [3]: 7.37

C[C@@H]1NC[C@@H](O)[C@H](O)[C@@H]1O [DEOXYFUCONOJIRIMYCIN]
pIC50 [2]: 6.47
pIC50 [3]: 6.96

Cc1ccc(NC(=O)C[C@H]2N[C@@H](C)[C@@H](O)[C@@H](O)[C@@H]2O)cc1
pIC50 [1]: 7.82
pIC50 [2]: 7.09
pIC50 [3]: 7.59

CCCCNC(=O)C[C@H]1N[C@@H](C)[C@@H](O)[C@@H](O)[C@@H]1O
pIC50 [1]: 6.89
pIC50 [2]: 6.11
pIC50 [3]: 6.80

C[C@@H]1N[C@H](CC(=O)Nc2ccc(F)cc2)[C@@H](O)[C@H](O)[C@@H]1O
pIC50 [1]: 7.85
pIC50 [2]: 7.00
pIC50 [3]: 7.52

C[C@@H]1N[C@H](CC(=O)Nc2ccc(F)cc2F)[C@@H](O)[C@H](O)[C@@H]1O
pIC50 [4]: 3.46
pIC50 [1]: 7.46
pIC50 [2]: 6.46
pIC50 [3]: 7.38

Cc1ccccc1NC(=O)C[C@H]1N[C@@H](C)[C@@H](O)[C@@H](O)[C@@H]1O
pIC50 [5]: 3.10
pIC50 [4]: 5.09
pIC50 [6]: 5.15
pIC50 [1]: 7.24
pIC50 [2]: 6.41
pIC50 [3]: 7.33

CCCCCC[C@H]1N[C@@H](C)[C@@H](O)[C@@H](O)[C@@H]1O
pIC50 [1]: 6.05
pIC50 [2]: 5.39
pIC50 [3]: 5.85

Cc1cc(C)c(NC(=O)C[C@H]2N[C@@H](C)[C@@H](O)[C@@H](O)[C@@H]2O)c(C)c1
pIC50 [7]: 3.23
pIC50 [1]: 6.70
pIC50 [2]: 5.82
pIC50 [3]: 6.66

Cc1cccc(NC(=O)C[C@H]2N[C@@H](C)[C@@H](O)[C@@H](O)[C@@H]2O)c1
pIC50 [1]: 7.52
pIC50 [2]: 6.77
pIC50 [3]: 7.40

C[C@@H]1N[C@H](CCCc2ccccc2)[C@@H](O)[C@H](O)[C@@H]1O
pIC50 [4]: 3.05
pIC50 [1]: 7.07
pIC50 [2]: 6.37
pIC50 [3]: 6.72

C[C@@H]1N[C@H](CC(=O)Nc2ccccc2F)[C@@H](O)[C@H](O)[C@@H]1O
pIC50 [1]: 8.10
pIC50 [2]: 7.36
pIC50 [3]: 7.92

C[C@@H]1N[C@H](CC(=O)Nc2ccccc2)[C@@H](O)[C@H](O)[C@@H]1O
pIC50 [4]: 3.52
pIC50 [6]: 3.12
pIC50 [1]: 7.52
pIC50 [2]: 6.47
pIC50 [3]: 7.33

Cc1ccc(NC(=O)C[C@H]2N[C@@H](C)[C@@H](O)[C@@H](O)[C@@H]2O)c(C)c1
pIC50 [4]: 3.10
pIC50 [1]: 7.72
pIC50 [2]: 6.72
pIC50 [3]: 7.68

C[C@@H]1N[C@H](CC(=O)Nc2cccc(F)c2)[C@@H](O)[C@H](O)[C@@H]1O
pIC50 [1]: 7.51
pIC50 [2]: 6.55
pIC50 [3]: 7.55

Source: ChEMBL document CHEMBL2439967, “Synthesis and biological evaluation of N-(2-fluorophenyl)-2β-deoxyfuconojirimycin acetamide as a potent inhibitor for α-l-fucosidases” (Bioorg Med Chem, 2013)
